# How the values were obtained:
# GSPT1 = GSPT1 (Homo sapiens, UniProt P15170+Q96SW2); assay: HiBiT degradation assay, GSPT1, Procedure B (Molt 4_hGSPT1_HiBIT cells); type: cell-based; set-up: Molt 4_hGSPT1_HiBIT N-terminus tagged cells were generated using CRISPR technology; endogenous in cells; host or cells: Molt 4 cells, CRISPR-edited; details: six hours
# Protocol: Molt 4_hGSPT1_HiBIT N-terminus tagged cells were generated using CRISPR technology. Cells were maintained in RPMI media (Thermo Fisher Scientific, Catalog #11875-093) containing 10% Fetal Bovine Serum (Thermo Fisher Scientific, Catalog #16140071) 1% Penicillin-Streptomycin (Thermo Fisher Scientific, Catalog #25200056). Cells were maintained at 37° C. in a 5% CO2 environment.
# Compounds were spotted onto Cornin 384-Well, Cell Culture-Treated, Flat-Bottom, Low Flange Microplate (Fisher Scientific, Catalog #07-201-013) using a Tecan D300e digital dispenser. Ten-point dose response curves spanning from 10 μM to 0.005 μM with a 0.1% DMSO tolerance were used.
# Cells were centrifuged for 5 minutes at 1200 RPMs. Cell culture media was aspirated off and cells were resuspended with RPMI+10% FBS. Cell density was determined using a Denovix CellDrop BF cell counter. Cell density was adjusted to 1×10^6 cells/ml. 40 μl of cells was added to compound treated tissue culture plates and incubated for six hours at 37° C. After six hours, cell culture plates were removed from tissue culture incubator and cooled to room temperature. 40 μl of Nano-GloHiBiT Lytic Detection Reagent (Promega, Catalog #N3040) was added to each well. Plates were placed on an orbital shaker (600 rpm) for 20 minutes. Luminescence was measured using an Envsion plate reader (Perkin Elmer). IC50 curves and Ymin were generated using a 4-parameter curve fit with GraphPad Prism software (Prism Corporation).
# Results from the HiBiT assay (DC50 (nM) and Ymin (% remaining)) are shown below. All CK1α data was generated according to Procedure A. GSPT1 data for Examples 1-600, 603-620 and 703-705 was generated according to Procedure A. GSPT1 data for Examples 601, 621-702 and 706-735 was generated according to Procedure B.
# CK1α = target: T1, CK1α (Homo sapiens, UniProt P48729+Q96SW2); assay: HiBiT degradation assay, CK1α, Procedure A; type: cell-based; details: six hours
# T1 construct: CSNK1A1-HiBit KI HEK293(LgBit) Cells; host or cells: HEK293(LgBit) knock-in cells
# T1 sequence (P48729 whole entry): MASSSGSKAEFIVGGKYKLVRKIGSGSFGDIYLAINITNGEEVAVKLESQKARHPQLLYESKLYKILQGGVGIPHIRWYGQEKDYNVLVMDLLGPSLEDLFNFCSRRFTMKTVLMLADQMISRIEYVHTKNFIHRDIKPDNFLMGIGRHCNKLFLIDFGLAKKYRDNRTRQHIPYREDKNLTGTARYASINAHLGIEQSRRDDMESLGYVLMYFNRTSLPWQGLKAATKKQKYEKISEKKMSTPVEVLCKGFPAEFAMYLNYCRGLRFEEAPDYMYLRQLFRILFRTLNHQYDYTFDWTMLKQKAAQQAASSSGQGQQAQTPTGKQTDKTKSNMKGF
# T1 sequence (Q96SW2 whole entry): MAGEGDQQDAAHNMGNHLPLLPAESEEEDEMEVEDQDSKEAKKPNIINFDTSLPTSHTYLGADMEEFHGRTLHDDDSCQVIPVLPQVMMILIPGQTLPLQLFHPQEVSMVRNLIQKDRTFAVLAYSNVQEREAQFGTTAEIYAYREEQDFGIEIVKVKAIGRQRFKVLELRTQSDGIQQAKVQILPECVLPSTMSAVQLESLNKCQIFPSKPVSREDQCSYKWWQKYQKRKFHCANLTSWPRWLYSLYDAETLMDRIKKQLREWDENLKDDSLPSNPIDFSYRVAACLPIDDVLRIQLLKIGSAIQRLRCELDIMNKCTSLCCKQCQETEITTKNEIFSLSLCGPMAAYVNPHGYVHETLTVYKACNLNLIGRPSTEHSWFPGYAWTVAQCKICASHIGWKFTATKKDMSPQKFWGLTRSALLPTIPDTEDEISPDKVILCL
# T1 sequence (Q16531 whole entry partner): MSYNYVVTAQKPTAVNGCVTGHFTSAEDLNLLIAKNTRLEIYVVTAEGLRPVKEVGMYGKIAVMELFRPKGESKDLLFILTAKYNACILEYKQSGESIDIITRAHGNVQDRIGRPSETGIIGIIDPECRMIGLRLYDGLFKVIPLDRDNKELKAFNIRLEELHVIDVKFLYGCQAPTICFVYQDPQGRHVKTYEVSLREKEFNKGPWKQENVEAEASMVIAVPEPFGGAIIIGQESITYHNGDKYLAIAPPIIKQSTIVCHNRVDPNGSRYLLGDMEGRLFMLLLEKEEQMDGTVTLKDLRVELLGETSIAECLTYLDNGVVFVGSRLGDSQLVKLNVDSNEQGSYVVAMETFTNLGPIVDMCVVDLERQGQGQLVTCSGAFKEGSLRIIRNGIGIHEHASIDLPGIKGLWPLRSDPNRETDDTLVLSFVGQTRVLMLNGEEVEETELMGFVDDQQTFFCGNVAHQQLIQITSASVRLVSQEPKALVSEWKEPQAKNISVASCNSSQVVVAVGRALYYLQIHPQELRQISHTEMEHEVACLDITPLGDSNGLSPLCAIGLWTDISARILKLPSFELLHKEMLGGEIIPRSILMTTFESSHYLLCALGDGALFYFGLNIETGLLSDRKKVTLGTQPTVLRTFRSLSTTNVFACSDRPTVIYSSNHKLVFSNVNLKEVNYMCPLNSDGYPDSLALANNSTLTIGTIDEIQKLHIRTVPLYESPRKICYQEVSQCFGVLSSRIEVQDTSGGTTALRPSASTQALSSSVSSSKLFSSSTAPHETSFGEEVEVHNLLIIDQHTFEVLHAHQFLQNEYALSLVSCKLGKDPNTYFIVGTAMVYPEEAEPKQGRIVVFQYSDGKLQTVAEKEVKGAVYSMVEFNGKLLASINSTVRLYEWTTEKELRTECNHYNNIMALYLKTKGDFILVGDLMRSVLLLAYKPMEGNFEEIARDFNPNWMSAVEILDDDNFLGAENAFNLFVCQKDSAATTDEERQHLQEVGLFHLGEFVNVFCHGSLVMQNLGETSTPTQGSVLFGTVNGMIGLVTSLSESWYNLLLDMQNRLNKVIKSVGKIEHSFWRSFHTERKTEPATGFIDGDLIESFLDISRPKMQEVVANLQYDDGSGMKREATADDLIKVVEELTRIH
# How it was run: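 Luminescence from HiBiT lytic detection, read after 20 min shaking, gave DC50 and Ymin by 4-parameter fit. Before that, cells (1×10^6 cells/ml, DMEM+10% FBS) sat 6 h at 37° C on 10-point compound series (10 μM–0.005 μM, 0.1% DMSO).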
# Sequence of GSPT1 (P15170 whole entry): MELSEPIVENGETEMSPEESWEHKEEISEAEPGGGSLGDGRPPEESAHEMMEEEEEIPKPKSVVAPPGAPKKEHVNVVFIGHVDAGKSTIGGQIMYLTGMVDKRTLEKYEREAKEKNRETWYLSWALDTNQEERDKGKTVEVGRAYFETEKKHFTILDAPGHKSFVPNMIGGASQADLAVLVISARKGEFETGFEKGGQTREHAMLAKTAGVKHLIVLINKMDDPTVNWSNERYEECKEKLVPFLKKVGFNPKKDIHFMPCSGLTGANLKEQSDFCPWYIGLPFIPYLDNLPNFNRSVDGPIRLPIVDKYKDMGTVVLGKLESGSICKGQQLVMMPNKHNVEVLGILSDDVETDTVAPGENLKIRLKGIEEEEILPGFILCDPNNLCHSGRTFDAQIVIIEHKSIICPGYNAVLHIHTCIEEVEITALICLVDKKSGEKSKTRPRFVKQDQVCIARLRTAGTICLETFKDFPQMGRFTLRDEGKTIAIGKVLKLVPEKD
# Sequence of GSPT1 (Q96SW2 whole entry): as the sequence (Q96SW2 whole entry) above
# Sequence of GSPT1 (Q16531 whole entry partner): as the sequence (Q16531 whole entry partner) above
Compound,DC50 (GSPT1) [nM],GSPT1 Ymin (GSPT1),CK1α Ymin (CK1α),DC50 (CK1α) [nM]
Cc1ccc(-c2nc(-c3ccc4c(c3)CN(C3CCC(=O)NC3=O)C4=O)cn2C)c(N)c1 (centres unmarked) [Example 663],< 25,F (F = >75-100% remaining),E (E = >25-75% remaining),< 25
Cn1cc(-c2ccc3c(c2)CN(C2CCC(=O)NC2=O)C3=O)nc1-c1ccsc1 (centres unmarked) [Example 664],≥ 25,E (E = >25-75% remaining),E (E = >25-75% remaining),< 25
Cn1cc(-c2ccc3c(c2)CN(C2CCC(=O)NC2=O)C3=O)nc1-c1ccc(-n2cccn2)cc1 (centres unmarked) [Example 665],≥ 25,D (D = >10- 25% remaining),E (E = >25-75% remaining),< 25
Cn1cc(-c2ccc3c(c2)CN(C2CCC(=O)NC2=O)C3=O)nc1-c1ccc(N2CCOCC2)cc1 (centres unmarked) [Example 666],≥ 25,F (F = >75-100% remaining),E (E = >25-75% remaining),< 25
Cn1cc(-c2ccc3c(c2)CN(C2CCC(=O)NC2=O)C3=O)nc1-c1ccc(Cl)c(C(F)(F)F)c1 (centres unmarked) [Example 667],< 25,F (F = >75-100% remaining),E (E = >25-75% remaining),< 25
Cn1cc(-c2ccc3c(c2)CN(C2CCC(=O)NC2=O)C3=O)nc1-c1ccc(CN2CCOCC2)cc1 (centres unmarked) [Example 668],≥ 25,F (F = >75-100% remaining),E (E = >25-75% remaining),< 25
Cn1cc(-c2ccc3c(c2)CN(C2CCC(=O)NC2=O)C3=O)nc1-c1cccc(C(N)=O)c1 (centres unmarked) [Example 669],≥ 25,F (F = >75-100% remaining),E (E = >25-75% remaining),≥ 25
Cc1ccc(-c2nc(-c3ccc4c(c3)CN(C3CCC(=O)NC3=O)C4=O)cn2C)c(F)c1 (centres unmarked) [Example 670],≥ 25,F (F = >75-100% remaining),E (E = >25-75% remaining),< 25
Cn1cc(-c2ccc3c(c2)CN(C2CCC(=O)NC2=O)C3=O)nc1-c1ccc2c(c1)CCCO2 (centres unmarked) [Example 671],≥ 25,F (F = >75-100% remaining),E (E = >25-75% remaining),< 25
Cn1cc(-c2ccc3c(c2)CN(C2CCC(=O)NC2=O)C3=O)nc1-c1cccc2cnccc12 (centres unmarked) [Example 672],< 25,F (F = >75-100% remaining),E (E = >25-75% remaining),< 25
COc1ccccc1-c1nc(-c2ccc3c(c2)CN(C2CCC(=O)NC2=O)C3=O)cn1C (centres unmarked) [Example 673],< 25,F (F = >75-100% remaining),E (E = >25-75% remaining),< 25
Cc1ccc(N)cc1-c1nc(-c2ccc3c(c2)CN(C2CCC(=O)NC2=O)C3=O)cn1C (centres unmarked) [Example 674],≥ 25,F (F = >75-100% remaining),E (E = >25-75% remaining),< 25
Cc1ccc(-c2nc(-c3ccc4c(c3)CN(C3CCC(=O)NC3=O)C4=O)cn2C)cc1F (centres unmarked) [Example 675],< 25,F (F = >75-100% remaining),E (E = >25-75% remaining),< 25
Cn1cc(-c2ccc3c(c2)CN(C2CCC(=O)NC2=O)C3=O)nc1-c1cccc2ccccc12 (centres unmarked) [Example 676],≥ 25,F (F = >75-100% remaining),E (E = >25-75% remaining),< 25
Cn1cc(-c2ccc3c(c2)CN(C2CCC(=O)NC2=O)C3=O)nc1-c1ccc(F)c(C#N)c1 (centres unmarked) [Example 677],≥ 25,,E (E = >25-75% remaining),< 25
Cn1cc(-c2ccc3c(c2)CN(C2CCC(=O)NC2=O)C3=O)nc1-c1ccc2c(c1)CCC(=O)N2 (centres unmarked) [Example 678],< 25,F (F = >75-100% remaining),E (E = >25-75% remaining),≥ 25
Cn1cc(-c2ccc3c(c2)CN(C2CCC(=O)NC2=O)C3=O)nc1-c1nn(C)c2ccccc12 (centres unmarked) [Example 679],≥ 25,F (F = >75-100% remaining),D (D = >10- 25% remaining),< 25

Compound,DC50 (GSPT1) [nM],GSPT1 Ymin (GSPT1),CK1α Ymin (CK1α),DC50 (CK1α) [nM]
Cn1cc(-c2ccc3c(c2)CN(C2CCC(=O)NC2=O)C3=O)nc1-c1ccc2c(c1)OCO2 (centres unmarked) [Example 680],≥ 25,E (E = >25-75% remaining),C (C = 0-10% remaining),< 25
Cn1cc(-c2ccc3c(c2)CN(C2CCC(=O)NC2=O)C3=O)nc1-c1cccc(OCc2ccccc2)c1 (centres unmarked) [Example 681],< 25,D (D = >10- 25% remaining),C (C = 0-10% remaining),< 25
Cn1cc2cc(-c3nc(-c4ccc5c(c4)CN(C4CCC(=O)NC4=O)C5=O)cn3C)ccc2n1 (centres unmarked) [Example 682],< 25,F (F = >75-100% remaining),C (C = 0-10% remaining),< 25
COc1ccc(C#N)cc1-c1nc(-c2ccc3c(c2)CN(C2CCC(=O)NC2=O)C3=O)cn1C (centres unmarked) [Example 684],< 25,F (F = >75-100% remaining),E (E = >25-75% remaining),< 25
Cn1cc(-c2ccc3c(c2)CN(C2CCC(=O)NC2=O)C3=O)nc1-c1ccnc2ccccc12 (centres unmarked) [Example 686],< 25,F (F = >75-100% remaining),C (C = 0-10% remaining),< 25
CCCCc1ccc(-c2nc(-c3ccc4c(c3)CN(C3CCC(=O)NC3=O)C4=O)cn2C)s1 (centres unmarked) [Example 687],< 25,F (F = >75-100% remaining),D (D = >10- 25% remaining),< 25
COc1ccc(Cl)c(-c2nc(-c3ccc4c(c3)CN(C3CCC(=O)NC3=O)C4=O)cn2C)c1 (centres unmarked) [Example 688],< 25,F (F = >75-100% remaining),C (C = 0-10% remaining),< 25
Cn1cc(-c2ccc3c(c2)CN(C2CCC(=O)NC2=O)C3=O)nc1-c1cccc2c1CCC2 (centres unmarked) [Example 689],≥ 25,F (F = >75-100% remaining),C (C = 0-10% remaining),< 25
Cn1ncc(-c2ccc3c(c2)CN(C2CCC(=O)NC2=O)C3=O)c1C1=CCNCC1 (centres unmarked) [Example 690],≥ 25,F (F = >75-100% remaining),E (E = >25-75% remaining),≥ 25
Cn1ncc(-c2ccc3c(c2)CN(C2CCC(=O)NC2=O)C3=O)c1C1=CCCC1 (centres unmarked) [Example 691],≥ 25,F (F = >75-100% remaining),E (E = >25-75% remaining),< 25
Cn1ncc(-c2ccc3c(c2)CN(C2CCC(=O)NC2=O)C3=O)c1C1=CCOCC1 (centres unmarked) [Example 693],≥ 25,F (F = >75-100% remaining),E (E = >25-75% remaining),< 25
Cn1ncc(-c2ccc3c(c2)CN(C2CCC(=O)NC2=O)C3=O)c1C1CCOCC1 (centres unmarked) [Example 694],≥ 25,F (F = >75-100% remaining),E (E = >25-75% remaining),≥ 25
Cn1ncc(-c2ccc3c(c2)CN(C2CCC(=O)NC2=O)C3=O)c1C1=COCCC1 (centres unmarked) [Example 695],< 25,F (F = >75-100% remaining),E (E = >25-75% remaining),< 25
Cn1ncc(-c2ccc3c(c2)CN(C2CCC(=O)NC2=O)C3=O)c1C1=CCC(c2ccccc2)CC1 (centres unmarked) [Example 696],≥ 25,F (F = >75-100% remaining),E (E = >25-75% remaining),< 25
Cn1ncc(-c2ccc3c(c2)CN(C2CCC(=O)NC2=O)C3=O)c1C1=CCCCCC1 (centres unmarked) [Example 697],≥ 25,E (E = >25-75% remaining),D (D = >10- 25% remaining),< 25
Cn1ncc(-c2ccc3c(c2)CN(C2CCC(=O)NC2=O)C3=O)c1C1=CCC(F)(F)CC1 (centres unmarked) [Example 698],≥ 25,F (F = >75-100% remaining),F (F = >75-100% remaining),< 25
